# Patent US12570704B2, “Functionally modified maytansinoids and compositions and methods of use thereof” (University of Georgia Research Foundation, Inc., priority 2019, dated 2026)
# Experiments:
# Assay type in all cases: cell-based, human
# [1] = tested on: H1299 cells; assay: Clonogenic assay with X-ray irradiation, linear-quadratic model
# Description: Around 3×10^5 of H1299 cells were plated in a series of 25 mm petri dishes in 5 mL of complete RMPI-1640 medium, and the cells were incubated for 24 h at 37° C. Once the cells were completely adhered to the bottom of the plate, the media was replaced with fresh RPMI-1640 containing DM1 or DM1-NO with a final concentration of 20 nM. After another 12 h of incubation, the cell cultures were irradiated by X-rays (320 kV) of different doses Immediately following the X-ray irradiation, the cell monolayers were trypsinized using 0.05% Trypsin/EDTA (Gibco, Life Technologies, USA). Single cells were collected and plated onto a 25 mm petri dish in 5 mL complete media (FIG. 1K). Each dish was then incubated for 21 days to allow colonies to form. After that, the media was removed and 0.5% crystal violet in 70% methanol was used to fixed and stain the existing colonies. The plates were sufficiently and carefully rinsed, and were dried at room temperature. Once dried, the colonies were counted manually under a microscope. When observed under the microscope, colonies of […] were said to be surviving colonies. The survival rate of these colonies was normalized to the plating efficiency of the untreated control cells. The mean and standard deviation of surviving colonies in each treatment group was calculated.
# The potential of DM1-NO as a radiosensitizer was assessed by clonogenic assays. Briefly, DM1 or DM1-NO was incubated with H1299 cells, the cells were irradiated with X-rays (0-10 Gy), and the resulting cells were seeded onto a petri dish (FIG. 1K). Colonies consisting more than 50 cells after 3 weeks were counted, and the data fit to a linear-quadratic model (Table 3).
# [2] = tested on: H1299 cells; assay: Superoxide dismutase (SOD) assay, cytosolic and mitochondrial; settings: +RT (6 Gy), 20 nM, compared to DM1+RT
# Description: Around 3×10^4 cells per well were seeded into each well of a six-well plate and cultured overnight. The cells treated with free drug (DM1 and DM1-NO), and drug loaded nanoparticles (DM1-NPs and DM1-NO-NPs) were given the same concentration of drug (20 nM) and irradiated with 6 Gy of radiation. The plates were then incubated for 24 h. After the treatment, the cells were rinsed with PBS, and the cell pellets were collected using a cell scraper. Cells were homogenized using a sonicator in ice-cold 20 mM 4-(2-hydroxyethyl)-1-piperazineethanesulfonic acid (HEPS) buffer (pH 7.2, containing 1 mM of ethylene glycol-bis(β-aminoethyl ether)-N,N,N′,N′-tetraacetic acid, also known as EGTA; Millipore Sigma, USA), […] of mannitol, and 70 mM sucrose. Following homogenization, a pellet was formed by centrifugation at 15,000×g for 15 minutes at 4° C. The supernatant was collected, and an assay was immediately performed to assess cytosolic SOD levels by comparing to a standard curve. To measure mitochondrial SOD levels, the pellet was resuspended in ice-cold PBS, and the sample was measured accordingly.
# [3] = tested on: H1299 cells; assay: MTT cell viability assay, 72 h, in the presence of RT; settings: Homo sapiens, NCI-H1299, with RT
# Description: FIGS. 7A-7E are plots showing the results of a cell cycle analysis, based on PI staining and assessed by flow cytometry. H1299 cells were incubated with PBS (7A), DM1 (7B), DM1-NO (7C), DM1-NPs (7D), or DM1-NO-NPs (20 nM, DM1 concentration) (7E) before analysis. […] FIG. 7G is a bar graphs showing Percentage of tubulin inhibition. Tubulin polymer was collected by centrifugation (35000×g for 1 h at 30° C.) and the amount of tubulin protein sediment was quantified by measuring protein concentration. ***, P<0.001. FIG. 7H is a line graph showing cell viability, tested with H1299 cells using 72-h MTT in the presence of RT. DM1, DM1-NO, and DM1-NO-NPs were studied.
# The viability of the H1299 cells after different treatments was measured by (4,5-dimethythiazon-2-yl)-2,5-diphenyl tetrazolium bromide (MTT) assay using an Infinite M200 microplate reader (BioTek's Synergy™ Mx, USA). Around 3×10^3 cells per well were seeded into a 96-well plate and cultured overnight until the cells fully adhered to the bottom of the plate. The cells were treated with different treatment groups, including free drugs (DM1 and DM1-NO), and drug loaded nanoparticles (DM1-NPs and DM1-NO-NPs) for 72 h. […] The plate was gently shake for 5 min (instrument setup) to dissolve the formazan crystals, and the absorbance at 570 nm was recorded by a microplate reader. […]
# [4] = tested on: H1299 cells; assay: MTT cell viability assay, 72 h, without RT; settings: Homo sapiens, NCI-H1299
# Description: The viability of the H1299 cells after different treatments was measured by (4,5-dimethythiazon-2-yl)-2,5-diphenyl tetrazolium bromide (MTT) assay using an Infinite M200 microplate reader (BioTek's Synergy™ Mx, USA). Around 3×10^3 cells per well were seeded into a 96-well plate and cultured overnight until the cells fully adhered to the bottom of the plate. The cells were treated with different treatment groups, including free drugs (DM1 and DM1-NO), and drug loaded nanoparticles (DM1-NPs and DM1-NO-NPs) for 72 h. […] After that MTT reagent (in 20 μL PBS, 5 mg/mL) was added to each well. The cells were further incubated for 4 h at 37° C. The medium in each well was then removed and replaced by 100 μL DMSO. The plate was gently shake for 5 min (instrument setup) to dissolve the formazan crystals, and the absorbance at 570 nm was recorded by a microplate reader. Each experiment condition was run three times and the data were shown as the mean value plus a standard deviation (±SD).
smiles,measurement,setting,value
COc1cc2cc(c1Cl)N(C)C(=O)C[C@@H](OC(=O)[C@H](C)N(C)C(=O)CCSN=O)[C@]1(C)OC1[C@H](C)[C@@H]1C[C@@](O)(NC(=O)O1)[C@H](OC)/C=C\C=C(/C)C2 (some centres unmarked) [DM1-NO],D10 (radiation dose at 10% fractional survival),"[1]; 20 nM, 12 h, X-rays 0-10 Gy",4.39 Gy
same,α (linear quadratic model best fit value),"[1]; 20 nM, 12 h, X-rays 0-10 Gy",0.0765
same,β (linear quadratic model best fit value),"[1]; 20 nM, 12 h, X-rays 0-10 Gy",0.0051
same,dose modifying factor at 10% factional survival (DMF10),[1]; relative to RT alone,1.23
same,increase of cytosol SOD activity,[2],70.08%
same,increase of mitochondrial SOD activity,[2],24.36%
same,IC50,[3],0.0149 µM
same,IC50,[4],0.0259 µM
